{
  "source": "ChEMBL document CHEMBL3098076",
  "about": "“Triazino indole-quinoline hybrid: a novel approach to antileishmanial agents” (Bioorg Med Chem Lett, 2014)",
  "key": {"Leishmania donovani [1]": {"test_system": "Leishmania donovani", "assay": "Antileishmanial activity against extracellular promastigote stage of Leishmania donovani", "type": "functional, organism-based"}, "[2]": {"assay": "(§1) Cytotoxicity against African green monkey Vero cells after 72 hrs by MTT assay", "type": "cell-based", "details": "chlorocebus sabaeus, Vero cells"}, "[3]": {"assay": "(§2) Selectivity index, ratio of CC50 for African green monkey Vero cells to IC50 for amastigote stage of Leishmania donovani MHOM/IN/80/Dd8", "type": "functional"}, "Leishmania donovani [4]": {"test_system": "Leishmania donovani", "assay": "Antileishmanial activity against intracellular amastigote stage of Leishmania donovani MHOM/IN/80/Dd8 expressing luciferase firefly reporter gene infected in mouse J774A1 cells after 72 hrs by luminescence assay", "type": "functional, organism-based, J774.A1"}, "Vero [5]": {"test_system": "Vero", "assay": "as §1", "type": "cell-based", "details": "chlorocebus sabaeus, vero, 72 h"}, "Vero [6]": {"test_system": "Vero", "assay": "as §2", "type": "functional"}, "[7]": {"details": "Leishmania donovani, MHOM/IN/80/Dd8, J774.A1, 72 h, read-out: IC50"}},
  "data": [
    {"compound": "CCCn1c2ccccc2c2nnc(SCCNc3ccnc4cc(Cl)ccc34)nc21", "values": [
      {"measurement": "IC50", "setting": "Leishmania donovani [1]; Leishmania donovani", "result": "> 40", "unit": "µM"},
      {"measurement": "CC50 at 72 h", "setting": "[2]", "result": 41.7, "unit": "µM"},
      {"measurement": "Ratio CC50/IC50", "setting": "[3]", "result": 3},
      {"measurement": "IC50", "setting": "Leishmania donovani [4]; [7]", "result": 14.7, "unit": "µM"}
    ]},
    {"compound": "Cn1c2ccccc2c2nnc(SCCCNc3ccnc4cc(Cl)ccc34)nc21", "values": [
      {"measurement": "IC50", "setting": "Leishmania donovani [1]; Leishmania donovani", "result": 24.1, "unit": "µM"},
      {"measurement": "IC50", "setting": "Leishmania donovani [4]; j774.a1", "result": "ND(toxic)"}
    ]},
    {"compound": "CCCCn1c2ccccc2c2nnc(SCCNc3ccnc4cc(Cl)ccc34)nc21", "values": [
      {"measurement": "IC50", "setting": "Leishmania donovani [1]; Leishmania donovani", "result": "> 40", "unit": "µM"},
      {"measurement": "IC50", "setting": "Leishmania donovani [4]; [7]", "result": 29.5, "unit": "µM"}
    ]},
    {"compound": "Clc1ccc2c(NCCSc3nnc4c(n3)[nH]c3ccc(Br)cc34)ccnc2c1", "values": [
      {"measurement": "IC50", "setting": "Leishmania donovani [1]; Leishmania donovani", "result": 7.09, "unit": "µM"},
      {"measurement": "IC50", "setting": "Leishmania donovani [4]; j774.a1", "result": "ND(toxic)"}
    ]},
    {"compound": "Cn1c2nc(SCCNc3ccnc4cc(Cl)ccc34)nnc2c2cccc(C(F)(F)F)c21", "values": [
      {"measurement": "IC50", "setting": "Leishmania donovani [1]; Leishmania donovani", "result": 6.46, "unit": "µM"},
      {"measurement": "CC50 at 72 h", "setting": "[2]", "result": 39.3, "unit": "µM"},
      {"measurement": "Ratio CC50/IC50", "setting": "[3]", "result": 6},
      {"measurement": "IC50", "setting": "Leishmania donovani [4]; [7]", "result": 6.46, "unit": "µM"}
    ]},
    {"compound": "Cn1c2ccccc2c2nnc(SCCNc3ccnc4cc(Cl)ccc34)nc21", "values": [
      {"measurement": "IC50", "setting": "Leishmania donovani [1]; Leishmania donovani", "result": 6.27, "unit": "µM"},
      {"measurement": "CC50 at 72 h", "setting": "[2]", "result": "> 400", "unit": "µM"},
      {"measurement": "Ratio CC50/IC50", "setting": "[3]", "result": ">1111"},
      {"measurement": "IC50", "setting": "Leishmania donovani [4]; [7]", "result": 0.36, "unit": "µM"}
    ]},
    {"compound": "CCn1c2ccccc2c2nnc(SCCCNc3ccnc4cc(Cl)ccc34)nc21", "values": [
      {"measurement": "IC50", "setting": "Leishmania donovani [1]; Leishmania donovani", "result": 2.66, "unit": "µM"},
      {"measurement": "IC50", "setting": "Leishmania donovani [4]; j774.a1", "result": "ND(toxic)"}
    ]},
    {"compound": "C=CCn1c2ccccc2c2nnc(SCCNc3ccnc4cc(Cl)ccc34)nc21", "values": [
      {"measurement": "IC50", "setting": "Leishmania donovani [1]; Leishmania donovani", "result": 7.9, "unit": "µM"},
      {"measurement": "CC50 at 72 h", "setting": "[2]", "result": 10.5, "unit": "µM"},
      {"measurement": "Ratio CC50/IC50", "setting": "[3]", "result": 1},
      {"measurement": "IC50", "setting": "Leishmania donovani [4]; [7]", "result": 10.1, "unit": "µM"}
    ]},
    {"compound": "CCn1c2ccccc2c2nnc(SCCCCCNc3ccnc4cc(Cl)ccc34)nc21", "values": [
      {"measurement": "IC50", "setting": "Leishmania donovani [1]; Leishmania donovani", "result": 8.95, "unit": "µM"},
      {"measurement": "IC50", "setting": "Leishmania donovani [4]; j774.a1", "result": "ND(toxic)"}
    ]},
    {"compound": "SODIUM ANTIMONY GLUCONATE [listing 1 of 2 here]", "values": [
      {"measurement": "IC50", "setting": "Leishmania donovani [1]", "result": "> 200", "unit": "µM"},
      {"measurement": "CC50", "setting": "Vero [5]", "result": "> 400", "unit": "µM"},
      {"measurement": "IC50", "setting": "Leishmania donovani [4]; j774.a1, read-out: IC50", "result": 54.6, "unit": "µM"}
    ]},
    {"compound": "CCCCCCCCCCCCCCCCOP(=O)([O-])OCC[N+](C)(C)C", "note": "[MILTEFOSINE]", "values": [
      {"measurement": "IC50", "setting": "Leishmania donovani [1]; Leishmania donovani", "result": 1.1, "unit": "µM"},
      {"measurement": "Ratio CC50/IC50", "setting": "[3]", "result": 7}
    ]},
    {"compound": "Clc1ccc2c(NCCCSc3nnc4c(n3)[nH]c3ccccc34)ccnc2c1", "values": [
      {"measurement": "IC50", "setting": "Leishmania donovani [1]; Leishmania donovani", "result": 18.9, "unit": "µM"},
      {"measurement": "IC50", "setting": "Leishmania donovani [4]; j774.a1", "result": "ND(toxic)"}
    ]},
    {"compound": "Cn1c2ccc([N+](=O)[O-])cc2c2nnc(SCCNc3ccnc4cc(Cl)ccc34)nc21", "values": [
      {"measurement": "IC50", "setting": "Leishmania donovani [1]; Leishmania donovani", "result": 1.95, "unit": "µM"},
      {"measurement": "IC50", "setting": "Leishmania donovani [4]; j774.a1", "result": "ND(toxic)"}
    ]},
    {"compound": "Clc1ccc2c(NCCSc3nnc4c(n3)[nH]c3ccccc34)ccnc2c1", "values": [
      {"measurement": "IC50", "setting": "Leishmania donovani [1]; Leishmania donovani", "result": 8.75, "unit": "µM"},
      {"measurement": "CC50 at 72 h", "setting": "[2]", "result": 74.3, "unit": "µM"},
      {"measurement": "Ratio CC50/IC50", "setting": "[3]", "result": 67},
      {"measurement": "IC50", "setting": "Leishmania donovani [4]; [7]", "result": 1.11, "unit": "µM"}
    ]},
    {"compound": "Cn1c2ccc(Br)cc2c2nnc(SCCNc3ccnc4cc(Cl)ccc34)nc21", "values": [
      {"measurement": "IC50", "setting": "Leishmania donovani [1]; Leishmania donovani", "result": "> 40", "unit": "µM"},
      {"measurement": "IC50", "setting": "Leishmania donovani [4]; [7]", "result": "> 40", "unit": "µM"}
    ]},
    {"compound": "CC(C)n1c2ccccc2c2nnc(SCCNc3ccnc4cc(Cl)ccc34)nc21", "values": [
      {"measurement": "IC50", "setting": "Leishmania donovani [1]; Leishmania donovani", "result": 21.9, "unit": "µM"},
      {"measurement": "CC50 at 72 h", "setting": "[2]", "result": 19.4, "unit": "µM"},
      {"measurement": "Ratio CC50/IC50", "setting": "[3]", "result": 7},
      {"measurement": "IC50", "setting": "Leishmania donovani [4]; [7]", "result": 2.88, "unit": "µM"}
    ]},
    {"compound": "CCn1c2ccc(Br)cc2c2nnc(SCCNc3ccnc4cc(Cl)ccc34)nc21", "values": [
      {"measurement": "IC50", "setting": "Leishmania donovani [1]; Leishmania donovani", "result": "> 40", "unit": "µM"},
      {"measurement": "IC50", "setting": "Leishmania donovani [4]; [7]", "result": "> 40", "unit": "µM"}
    ]},
    {"compound": "Cn1c2ccccc2c2nnc(SCCCCCNc3ccnc4cc(Cl)ccc34)nc21", "values": [
      {"measurement": "IC50", "setting": "Leishmania donovani [1]; Leishmania donovani", "result": 15, "unit": "µM"},
      {"measurement": "IC50", "setting": "Leishmania donovani [4]; j774.a1", "result": "ND(toxic)"}
    ]},
    {"compound": "SODIUM ANTIMONY GLUCONATE [listing 2 of 2 here]", "values": [
      {"measurement": "Ratio CC50/IC50", "setting": "Vero [6]", "result": "> 7"}
    ]},
    {"compound": "Clc1ccc2c(NCCSc3nnc4c5ccccc5n(Cc5ccccc5)c4n3)ccnc2c1", "values": [
      {"measurement": "IC50", "setting": "Leishmania donovani [1]; Leishmania donovani", "result": 8.08, "unit": "µM"},
      {"measurement": "IC50", "setting": "Leishmania donovani [4]; j774.a1", "result": "ND(toxic)"}
    ]},
    {"compound": "CCn1c2ccccc2c2nnc(SCCNc3ccnc4cc(Cl)ccc34)nc21", "values": [
      {"measurement": "IC50", "setting": "Leishmania donovani [1]; Leishmania donovani", "result": 9.1, "unit": "µM"},
      {"measurement": "CC50 at 72 h", "setting": "[2]", "result": 61.5, "unit": "µM"},
      {"measurement": "Ratio CC50/IC50", "setting": "[3]", "result": 7},
      {"measurement": "IC50", "setting": "Leishmania donovani [4]; [7]", "result": 7.1, "unit": "µM"}
    ]},
    {"compound": "CC(C)Cn1c2ccccc2c2nnc(SCCNc3ccnc4cc(Cl)ccc34)nc21", "values": [
      {"measurement": "IC50", "setting": "Leishmania donovani [1]; Leishmania donovani", "result": 17, "unit": "µM"},
      {"measurement": "CC50 at 72 h", "setting": "[2]", "result": 28.6, "unit": "µM"},
      {"measurement": "Ratio CC50/IC50", "setting": "[3]", "result": 5},
      {"measurement": "IC50", "setting": "Leishmania donovani [4]; [7]", "result": 5.69, "unit": "µM"}
    ]}
  ]
}
